Laboratory results from paper PMC9671962 (Communications Biology, 2022).
Where “and” joins values, the source holds several entries; their conditions need not be identical. Equal values may be shown once.

How the values were obtained:
[1] = parameters: method as in PMID 31072830; details: cited from earlier work
[2] = cited from earlier work
NB-1643x = assay: Pre-clinical efficacy study, NB-1643x PDX; format: in vivo; details: 36 MBq/kg/fraction x 4 fractions, single mouse
Experimental: (§1) Patient demographics and genetic characteristics are listed in (Supplementary Tables 1, 2)[17]. The maximum tolerated dose (MTD) was determined to be 36 MBq/kg administered by intra-peritoneal injection twice weekly for a total of 4 dose fractions and this fractionated regimen was used in all studies (Supplementary Fig. 1)[18],[19]. […] Nine of 11 PDX models were MYCN amplified (Fig. 1b), which is a hallmark of high-risk neuroblastoma. Tumor response was measured as the maximum percent decrease in tumor volume after treatment and event-free survival (EFS) was measured by the area over the curve method with tumor events pre-defined by tumor growth exceeding 2 cm[3],[18].
The use of 2 mice per arm was based on the previously reported statistical analysis. […] Two additional dose levels of 12, and 24 MBq/kg/fraction were assessed in a subset of models and were administered as stated above. […] Tumors were measured using a digital caliper at the initiation of the study and two times per week during the treatment period. Tumor volumes were calculated as volume = ((diameter^1/2 + diameter^2/2)^3∗0.5236)/1000. Weights were obtained twice weekly and mice were monitored daily for signs of toxicity. […] Tumor response was assessed by best response defined as greatest reduction in tumor volume following the last dose and is presented as percent change in tumor volume. […]

COG-N-426x-FELIX = assay: Pre-clinical efficacy study, COG-N-426x-FELIX PDX; format: in vivo, mouse; details: for Tumor Volume: COG-N-426x-FELIX tumor re-challenge (24 MBq/kg/fraction x 4); for EFS by AOC method / Tumor response (% growth from study initiation at ~ 200 mm3): single mouse
Experimental: as §1
The use of 2 mice per arm was based on the previously reported statistical analysis. PDX tumors were implanted into the right flank of 5 to 6-weeks old female mice weighing about 20–25 grams. […] Two additional dose levels of 12, and 24 MBq/kg/fraction were assessed in a subset of models and were administered as stated above. In two models treated at the 24 MBq/kg/fraction dose level we re-challenged tumor response at the time of tumor progression with an additional 4 dose fractions at 24 MBq/kg/fraction given twice weekly. Doses were prepared in 500 µL total volume. An equal volume of saline was used for the vehicle group. Tumors were measured using a digital caliper at the initiation of the study and two times per week during the treatment period. Tumor volumes were calculated as volume = ([…]∗0.5236)/1000. Weights were obtained twice weekly and mice were monitored daily for signs of toxicity. […] Tumor response was assessed by best response defined as greatest reduction in tumor volume following the last dose and is presented as percent change in tumor volume. Event-free survival was determined by area over the curve method that calculates the time to tumor event, which was defined as tumors reaching or exceeding a size ≥ 2 cm^3.
Animal studies were performed in female mice due to the lack of sex-related differences for [^211At]PTT tolerability from initial dose response studies performed in female and male mice. Female mice were chosen due to their underlying behavior towards other study subjects that reduced nonstudy-related causes for decreased wellness. Pre-clinical efficacy studies were performed through “single mouse testing” to more closely recapitulate a clinical trial. […] Number size for treatment groups was determined by model tumor growth reproducibility, which was previously shown to have less than 5% normal variation with at least two animals. Statistical tests for tumor response and event-free survival (EFS) were performed as a grouped analysis that included all tumor models treated at each respective dose level (n = 2 per model per dose level). Statistical differences between treatment groups for tumor response was performed by paired-model T-test that compared reduction in tumor volume for the 36 MBq/kg dose level vs. 24 MBq/kg or 12 MBq/kg. Event free survival was measured by area over the curve method to quantify time to event, which was set as tumor growth exceeding 2 cm[3],[19]. Differences in EFS were tested across all treated models for each respective dose level, and against untreated controls, by paired-model ANOVA analysis. Associations of drug target expression and response were performed by linear regression analysis of EFS and PARP1 mRNA expression. Genetic signatures were visually presented as a function of EFS and no statistical tests were applied. Blood and marrow toxicity studies were performed with n = 5 sample sizes and powered to detect >20% differences between untreated controls and treated animals. Results were tested for significance by one-way ANOVA comparison from untreated controls. Marrow colony formation assays were performed in replicates of 2 for each mouse subject, dependent on marrow isolation, and all replicates are included in final analyses. […]

[3] = COG-N-426x-FELIX, 24 MBq/kg/fraction x 4 fractions
[4] = COG-N-426x-FELIX, 36 MBq/kg/fraction x 4 fractions

Question: Which results are given for `O=C1NCCn2c(-c3ccc([211At])cc3)nc3cccc1c32` [[^211At]PTT, Astatine-211-parthanatine]?
Answer: outcome of single dose ([1]; 1,480 kBq administered as a single dose): lethal; outcome of fractionated dose ([1]; 1,480 kBq separated into 4 dose fractions given twice weekly): tolerated; fold more cytotoxic than the non-radioactive PARP inhibitor analog (KX1) [2]: ~1 billion; EFS by AOC method (NB-1643x): 90.5 days and 76.6 days and 90.5782 days and 76.6342 days; Tumor response (% growth from study initiation at ~ 200 mm3) (NB-1643x): -95.4545% and -100%; Tumor Volume (COG-N-426x-FELIX; week 0): 0.25 cm3; Tumor Volume (COG-N-426x-FELIX; week 0.4): 0.2 cm3; Tumor Volume (COG-N-426x-FELIX; week 0.9): 0.05 cm3; Tumor Volume (COG-N-426x-FELIX; week 1.3): 0.08 cm3; Tumor Volume (COG-N-426x-FELIX; week 1.9): 0.01 cm3; Tumor Volume (COG-N-426x-FELIX; week 2.3): 0.01 cm3; Tumor Volume (COG-N-426x-FELIX; week 2.9): 0 cm3; Tumor Volume (COG-N-426x-FELIX; week 3.4): 0.01 cm3; Tumor Volume (COG-N-426x-FELIX; week 3.9): 0 cm3; Tumor Volume (COG-N-426x-FELIX; week 4.4): 0 cm3; Tumor Volume (COG-N-426x-FELIX; week 4.9): 0 cm3; Tumor Volume (COG-N-426x-FELIX; week 5.3): 0 cm3; Tumor Volume (COG-N-426x-FELIX; week 5.9): 0 cm3; Tumor Volume (COG-N-426x-FELIX; week 6.3): 0.02 cm3; Tumor Volume (COG-N-426x-FELIX; week 6.9): 0.19 cm3; Tumor Volume (COG-N-426x-FELIX; week 7.3): 0.13 cm3; Tumor Volume (COG-N-426x-FELIX; week 7.9): 0.03 cm3; Tumor Volume (COG-N-426x-FELIX; week 8.3): 0.02 cm3; Tumor Volume (COG-N-426x-FELIX; week 8.9): 0 cm3; Tumor Volume (COG-N-426x-FELIX; week 9.3): 0 cm3; Tumor Volume (COG-N-426x-FELIX; week 9.9): 0 cm3; Tumor Volume (COG-N-426x-FELIX; week 10.3): 0 cm3; Tumor Volume (COG-N-426x-FELIX; week 10.9): 0 cm3; Tumor Volume (COG-N-426x-FELIX; week 11.3): 0 cm3; Tumor Volume (COG-N-426x-FELIX; week 11.9): 0 cm3; Tumor Volume (COG-N-426x-FELIX; week 12.3): 0 cm3; Tumor Volume (COG-N-426x-FELIX; week 12.9): 0 cm3; Tumor Volume (COG-N-426x-FELIX; week 13.3): 0 cm3; Tumor Volume (COG-N-426x-FELIX; week 13.9): 0 cm3; Tumor Volume (COG-N-426x-FELIX; week 14.3): 0 cm3; Tumor Volume (COG-N-426x-FELIX; week 14.9): 0 cm3; EFS1 (initial treatment) (COG-N-426x-FELIX; COG-N-426x-FELIX, 24 MBq/kg/fraction x 4, re-challenged mouse n = 1): 49 days and 49.5 days; EFS by AOC method (COG-N-426x-FELIX; [3]): 103. 9 Days; Tumor response (% growth from study initiation at ~ 200 mm3) (COG-N-426x-FELIX; [3]): -100%; EFS by AOC method (COG-N-426x-FELIX; [4]): 104. 1 Days and 104.134 Days and 104.127 Days; Tumor response (% growth from study initiation at ~ 200 mm3) (COG-N-426x-FELIX; [4]): -100%; EFS2 (re-challenge treatment) (COG-N-426x-FELIX; COG-N-426x-FELIX, re-challenge 24 MBq/kg/fraction x 4 at tumor progression, no measurable disease): 59 days
